Data: article PMC8400343, “Synthesis and Evaluation of the Antidepressant-like Properties of HBK-10, a Novel 2-Methoxyphenylpiperazine Derivative Targeting the 5-HT1A and D2 Receptors” (Pharmaceuticals, 2021)
Structures can show the parent of a compound that is named as a salt. Where two headings read alike, the source gives them in different places. Marks after values point to notes of the source that are not given here.

How the values were obtained:
mice [1] = assay: Forced swim test in naive mice; assay type: in vivo, mouse; settings: alone
Experimental: Adult male Albino-Swiss mice (CD-1, 8 weeks old, 18–21g: Jagiellonian University Medical College, Krakow, Poland) were used in all experiments. Unless stated otherwise, the animals were kept in groups of 10 mice in standard cages (37 cm × 21 cm × 15 cm) at a room temperature (22 ± 2 °C), on a 12 h light/dark cycle (lights on 7:00) with ad libitum access to food and water. Mice were used only once in each test. Behavioral experiments were performed between 8 am and 4 pm and evaluated by a trained observer blind to the treatments. Mice were handled for 1 week before starting the experimental procedures. Animals were randomly allocated to the treatment using a computer-generated sequence, and researchers making measurements on the animals or analyzing the results were blind to the allocation. Moreover, experimental groups were distributed across multiple cages, and the location of the mouse cages in the room was changed following each day.
HBK-10, WAY-100635 (Sigma, Darmstadt, Germany), p-chlorophenylalanine (pCPA; Sigma, Darmstadt, Germany), fluoxetine (Sigma, Darmstadt, Germany), reboxetine (Sigma, Darmstadt, Germany) and bupropion (Sigma, Darmstadt, Germany), were suspended in 1% Tween, and administered ip at a volume of 10 mL/kg 30 min before each behavioral test. The control groups received saline ip 30 min prior to testing. The doses of fluoxetine, reboxetine and bupropion as well as WAY-100635 and pCPA were based on our previous studies with 2-methoxyphenylpiperazine derivatives.
(§1) The experiment was performed on mice according to the method described by Porsolt et al. and as previously described. Mice were placed individually in glass cylinders (height 25 cm, diameter 10 cm) filled with water at 24 ± 1 °C to a depth of 10 cm and left there for 6 min. Following a 2 min habituation period, total time spent immobile was recorded during the next 4 min. The animal was considered as immobile when it remained floating passively in the water, making only small movements to keep its head above the water. The experiments were video-recorded and scored using elevenmaze.com software by a trained observer blind to the treatments.
To assess the involvement of a serotonergic system in the antidepressant-like activity of tested compounds in the forced swim test, the mice were pretreated with pCPA (tryptophan hydroxylase inhibitor) according to the method previously described. […]. Twenty-four hours after the last pCPA administration, we injected mice with 1% Tween ip or tested compound. We performed the forced swim test 30 min after the administration.
The putative involvement of 5-HT1A receptors in the antidepressant-like effect of tested compound was studied using WAY-100635 (a selective 5-HT1A receptor antagonist). WAY-100635 at a dose of 0.1 mg/kg was administered sc 15 min prior to the injection of HBK-10. After 30 min the forced swim test was performed. The behaviorally ineffective dose of WAY-100635 used in the experiments was based on our previous experiments.

serotonin level = tested on: serotonin level; design: method as in PMID 9044239; settings: 3-day treatment with pCPA; cited from earlier work
[2] = MLMs, cited from earlier work; for % Remaining after 30 min: protein concentration 0.5
5-HT2A = molecular target: 5-HT2A; design: method as in PMID 10073136; settings: cited from earlier work
5-HT1A = molecular target: 5-HT1A; design: method as in PMID 10073136; settings: cited from earlier work
α1-adrenoceptor = molecular target: α1-adrenoceptor; design: method as in PMID 10073136; settings: cited from earlier work
mice [3] = settings: i.p.; cited from earlier work
mice [4] = settings: i.p.; cited from earlier work; remark: listed apart in the source
[5] = molecular target: voltage-sensitive calcium channels (Cav); design: method as in PMID 10073136; settings: read-out: Ki Cav [3H]-nitrendipine; cited from earlier work
[6] = tested on: corticosterone-treated mice; assay: Locomotor activity in corticosterone-treated mice; assay type: in vivo, mouse; settings: 15 mg/kg ip chronic, 4 min
Experimental: The locomotor activity of mice was measured as previously described. We used photoresistor actometers (Ugo Basile, Italy) connected to a counter for the recording of light-beam interruptions. Mice were placed individually in cages for 30 min, and the number of crossings of the light beams was recorded as the locomotor activity for 4 min.
(§2) Mice were injected with corticosterone (sc, 20 mg/kg) at random times during the light phase for 21 days. The dose and route of administration of corticosterone were based on our previous study. Control mice received saline containing 0.1% dimethyl sulfoxide (DMSO) and 0.1% Tween (sc). For the next 21 days, 30 min before the corticosterone injection, mice were injected with saline, HBK-10 (0.625 or 1.25 mg/kg), or fluoxetine (15 mg/kg) (ip). Twenty-four hours after the last injection, animals were tested in the forced swim test and locomotor activity test (Figure 8).

[7] = tested on: corticosterone-treated mice; assay: Forced swim test in corticosterone-induced mouse model of depression; assay type: in vivo; settings: fluoxetine 15 mg/kg ip, chronic (3 weeks)
Experimental: as §1, §2

N[C@@H](Cc1ccc(Cl)cc1)C(=O)O (racemic) [pCPA, p-chlorophenylalanine]
Effect on immobility in the forced swim test (mice [1]; pCPA 200 mg/kg ip once daily for three days): had no effect on the immobility | Reduction of serotonin level in midbrain (serotonin level): 24% | Reduction of serotonin level in the cortical regions (serotonin level): around 30%

O=C1CCc2ccc(OCCCCN3CCN(c4cccc(Cl)c4Cl)CC3)cc2N1 [Aripiprazole]
t1/2 ([2]; protein concentration 1.0): 217 ^b min

O=C1CC2(CCCC2)CC(=O)N1CCCCN1CCN(c2ncccn2)CC1 [Buspirone]
% Remaining after 30 min [2]: 0.29 ^a % | % Remaining after 30 min ([2]; listed as buspirone): lower than 1%

COc1ccccc1N1CCN(CCCOc2c(C)cccc2C)CC1 [Compd. I, 1-[3-(2,6-dimethylphenoxy)propyl]-4-(2-methoxyphenyl)piperazine hydrochloride]
Ki (5-HT2A): 192 nM | Ki (5-HT1A): 4.9 nM | Ki (α1-adrenoceptor): 2.1 nM

CC[C@@H](CO)NCCOc1c(C)cccc1C [Compd. II, (S)-{2-[(2-(2,6-dimethylphenoxy)ethyl]amino}butan-1-ol hydrochloride]
Rotarod test TD50 (mice [3]): 34.45 mg/kg | MES ED50 (mice [4]): 7.57 mg/kg | Ki [5]: 18000 nM

CNCCC(Oc1ccc(C(F)(F)F)cc1)c1ccccc1 (stereo not drawn) [Fluoxetine, reference compound]
Number of Crossings ± SEM [6]: 462.5 ± 41.81 | Decrease of immobility in the forced swim test in corticosterone-treated mice [7]: 32%

COc1ccccc1N1CCN(CCN(C(=O)C2CCCCC2)c2ccccn2)CC1 [WAY-100635, reference compound]
Effect on immobility in the forced swim test (mice [1]; WAY-100635 0.1 mg/kg sc): had no effect on the immobility
